The values below come from patent publication US5508273A, “Substituted phosphonic acids and derivatives useful in treating bone wasting diseases” (priority 1993, dated 1996).

Where two headings read alike, the source gives them in different places.

Assay [1] deals with T1, Human osteoclastic acid phosphatase (OAP) (Homo sapiens, UniProt P13686).
T1 construct: purified from hairy cell leukemia spleen; from tissue; host or cells: human hairy cell leukemia spleen
T1 sequence (P13686 22-325): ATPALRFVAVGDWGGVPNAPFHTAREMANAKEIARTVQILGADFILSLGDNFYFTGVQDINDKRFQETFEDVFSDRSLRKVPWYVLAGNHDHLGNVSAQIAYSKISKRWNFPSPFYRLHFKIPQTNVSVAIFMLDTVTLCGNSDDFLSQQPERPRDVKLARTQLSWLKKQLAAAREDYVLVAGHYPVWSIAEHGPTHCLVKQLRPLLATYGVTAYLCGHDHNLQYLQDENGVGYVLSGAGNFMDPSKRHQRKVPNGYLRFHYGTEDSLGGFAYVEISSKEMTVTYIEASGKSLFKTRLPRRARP
Briefly: Osteoclastic Acid Phosphatase (OAP) inhibition. It counts as biochemical. The settings on record: for inhibition at 100 µM: read-out: OAPase % Inh@100 uM. As for the experimental part:
Inhibitors of the enzyme are involved with the stimulation of osteoblast cell proliferation in cell culture which is predictive of enhancement of bone mass and bone formation in vivo. Inhibitors of osteoclastic acid phosphatase prevent the resorptive action of osteoclasts and thereby prevent the degradation of bone mass associated with osteoporosis.
The enzyme was stored at -80° C. and was diluted in 50 mM, pH 5.0, sodium acetate buffer prior to use. Test compounds were dissolved in ethanol, DMSO, or water and tested at 100 μM. The assay measures the ability of the enzyme to dephosphorylate methylumbelliferone phosphate to the product, methylumbelliferone, which is fluorescent. The enzyme assay is performed in 50 mM, pH 5.0, sodium acetate buffer as follows: 5 μL of compound was added to 150 μL Of buffered enzyme solution. […] The reaction was performed at room temperature at pH=5.0 and terminated after 20 minutes by the addition of 50 μL of 4N NaOH. The reaction product, methylumbelliferone, was measured by fluorescence determination using a Dynatech Microfluor Fluorescence detector.

Assay [2] addresses T2, human prostatic tyrosyl phosphatase (Homo sapiens, UniProt P15309).
T2 construct: purchased Sigma Chemical Co
T2 sequence (P15309 33-386): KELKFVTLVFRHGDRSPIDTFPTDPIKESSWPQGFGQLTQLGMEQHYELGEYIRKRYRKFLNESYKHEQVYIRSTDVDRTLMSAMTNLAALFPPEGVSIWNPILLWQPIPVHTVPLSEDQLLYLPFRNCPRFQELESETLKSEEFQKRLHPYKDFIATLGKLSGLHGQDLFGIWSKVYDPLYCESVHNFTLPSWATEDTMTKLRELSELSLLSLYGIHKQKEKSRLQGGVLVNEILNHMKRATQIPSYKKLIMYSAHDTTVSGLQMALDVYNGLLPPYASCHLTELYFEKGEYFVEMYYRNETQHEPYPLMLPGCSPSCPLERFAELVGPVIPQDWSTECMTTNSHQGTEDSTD
In words: biochemical. The note with it: 30 minutes at 37° C., pH 5.5, (14C)-phosphotyrosine substrate; read-out: Tyr-Pase IC50. As for the experimental part: Inhibition of the activity of tyrosyl protein phosphatase was evaluated by incubating an aliquot of purified human prostatic tyrosyl protein acid phosphatase (Sigma Chemical Co.) with radiolabeled phosphotyrosine. The radiolabeled substrate, (^14 C)-phosphotyrosine, is separated from the product, (^14 C)-tyrosine by ion exchange chromatography and the production of radiolabeled tyrosine is quantified. Test compounds are screened at a concentration of one micromolar to 1 nM. The ability of test compounds to inhibit tyrosyl phosphatase was expressed as the % inhibition at the highest concentration of test compound tested and/or as the IC50 in Table 1.
The test compounds were incubated in the presence of tyrosyl acid phosphatase and radiolabeled substrate {(^14 C)-phosphotyrosine, (NEN Dupont Custom Synthesis)} plus cold O-phospho-L-tyrosine{(10 uM) (Sigma Chemical Co.)} in a 0.05 mM sodium acetate buffer (pH 5.5) for 30 minutes at 37° C. […] The incubation mixture was passed over an ion-exchange column {(Ag 1-X8) (Bio-Rad Laboratories)} and washed with 2.5 ml of distilled, deionized water. The total column effluent containing the radiolabeled product (^14 C-tyrosine) was collected and quantified by liquid scintillation spectroscopy. The test compounds IC50 was calculated using a quantal (all-or-none) dose-response calculation.

Setting [3] is: pH 5.0, room temperature, 20 minutes.
The mark [4] stands for this setting: pH 5.0, room temperature, 20 minutes, read-out: OAPase IC50.

For the compound `Cc1cccc(C(C2CCCCC2)P(=O)(O)O)c1` (stereo not shown) [Cmpd 7], in assay [1] (setting [3]), the inhibition at 100 µM came out at 16%.

For the compound `O=P(O)(O)C(c1ccccc1)c1cccc(Cl)c1` (stereo not shown) [Cmpd 15], the IC50 in assay [2] was 15 µM. The inhibition at 100 µM in assay [1] (setting [3]) stood at 31%.

With `COc1ccc(CC(c2cccc3ccccc23)P(=O)(O)O)cc1` (stereo not shown) [Cmpd 44], the inhibition at 100 µM in assay [1] (setting [3]) turned out to be 73%.

Regarding `O=P(O)(O)C(Cc1ccccc1)c1cccc2ccccc12` (stereo not shown) [Cmpd 45], the values for the IC50 in assay [2] and in assay [1] (setting [4]) were 67.2 µM and 21 µM, respectively. Moreover, in assay [1] (setting [3]), the inhibition at 100 µM was determined as 92%.

As to `O=P(O)(O)C(c1ccccc1)C1CCCCC1` (stereo not shown) [Cmpd 4], the IC50 in assay [2] was determined as 6.9 µM; in assay [1] (setting [4]), 1.4 µM.

Take `O=P(O)(O)C(Cc1ccccc1)c1ccc2ccccc2c1` (stereo not shown) [Cmpd 40]: in assay [2], the IC50 is above 1 µM. Further, the inhibition at 100 µM in assay [1] (setting [3]) is 19%.

With `O=P(O)(O)C(Cc1cccc(C(F)(F)F)c1)c1cccc(C(F)(F)F)c1` (stereo not shown) [Cmpd 35, 3-Trifluoromethylphenyl(3-trifluoromethylbenzyl)methylphosphonic Acid], the IC50 in assay [2] worked out at 9 µM; in assay [1] (setting [4]) it was 100 µM.

With `O=P(O)(O)C(c1ccc(-c2ccccc2)cc1)C1CCCCC1` (stereo not shown) [Cmpd 6], in assay [2], the IC50 was found to be 37 µM. The inhibition at 100 µM in assay [1] (setting [3]) is 40%.

As to `O=P(O)(O)C(Cc1ccc(-c2ccccc2)cc1)c1cccc2ccccc12` (stereo not shown) [Cmpd 42], the IC50 in assay [2] is above 1 µM; in assay [1] (setting [4]) it was 6.3 µM. In assay [1] (setting [3]), the inhibition at 100 µM came to 100%.

Regarding `O=P(O)(O)C(c1ccccc1)c1ccc(Br)cc1` (stereo not shown) [Cmpd 26], in assay [2], the IC50 was found to be 102 µM. Further, the inhibition at 100 µM in assay [1] (setting [3]) came out at 20%.

Regarding `O=P(O)(O)C(c1ccccc1)c1cccc(C(F)(F)F)c1` (stereo not shown) [Cmpd 16], the IC50 in assay [2] stood at 67.1 µM. In addition, in assay [1] (setting [3]), the inhibition at 100 µM was determined as 26%.

For `O=P(O)(O)C(Cc1ccc(-c2ccccc2)cc1)c1ccccc1` (stereo not shown) [Cmpd 25], the IC50 in assay [2] was 15.7 µM; in assay [1] (setting [4]), 29 µM. The inhibition at 100 µM in assay [1] (setting [3]) is 94%.

On to `O=P(O)(O)C(c1ccccc1)c1ccc(C(F)(F)F)cc1` (stereo not shown) [Cmpd 23], for which the results for the IC50 in assay [2] and in assay [1] (setting [4]) were 40.8 µM and 100 µM, respectively.

For `O=[N+]([O-])c1ccc(CC(c2cccc3ccccc23)P(=O)(O)O)cc1` (stereo not shown) [Cmpd 47], in assay [1] (setting [3]), the inhibition at 100 µM worked out at 80%.

`O=P(O)(O)C(c1ccccc1)c1ccc(Cl)cc1` (stereo not shown) [Cmpd 27]: in assay [2], the IC50 came to 142 µM. Besides, in assay [1] (setting [3]), the inhibition at 100 µM amounted to 17%.

Turning to `O=P(O)(O)C(Cc1ccc(Cl)cc1)c1cccc2ccccc12` (stereo not shown) [Cmpd 48, 4-Chlorobenzyl(1-naphthyl)methylphosphonic acid], the IC50 was found to be 56.9 µM in assay [2] and 21 µM in assay [1]. Also, in assay [1] (setting [3]), the inhibition at 100 µM was 94%.

Take `Cc1ccc(CC(c2cccc3ccccc23)P(=O)(O)O)cc1` (stereo not shown) [Cmpd 46]: the inhibition at 100 µM in assay [1] (setting [3]) came to 75%.

Take `O=P(O)(O)C(c1ccccc1)c1ccccc1C(F)(F)F` (stereo not shown) [Cmpd 14, 2-Trifluoromethylphenyl(phenyl)methylphosphonic Acid]: the IC50 in assay [2] came out at 8.9 µM. Also, the inhibition at 100 µM in assay [1] (setting [3]) stood at 9%.

For the compound `O=P(O)(O)C(c1cccc(C(F)(F)F)c1)c1cccc(C(F)(F)F)c1` [Cmpd 20, bis(3-Trifluoromethylphenyl)methylphosphonic Acid], the IC50 in assay [2] was found to be 29.3 µM. For the same compound, in assay [1] (setting [3]), the inhibition at 100 µM stood at 28%.

In the case of `O=P(O)(O)C(Cc1ccc(-c2ccccc2)cc1)c1cccc(C(F)(F)F)c1` (stereo not shown) [Cmpd 38], the IC50 in assay [2] turned out to be 35.7 µM; in assay [1] (setting [4]), 22 µM. Further, the inhibition at 100 µM in assay [1] (setting [3]) was found to be 100%.

For `O=P(O)(O)C(c1ccccc1)c1ccccc1Cl` (stereo not shown) [Cmpd 13], the IC50 in assay [2] is 30.7 µM. The inhibition at 100 µM in assay [1] (setting [3]) amounted to 12%.

For `Cc1cccc(C(c2ccccc2)P(=O)(O)O)c1` (stereo not shown) [Cmpd 18], the IC50 in assay [2] came out at 14 µM. The inhibition at 100 µM in assay [1] (setting [3]) was 4%.

`Cc1ccccc1C(C1CCCCC1)P(=O)(O)O` (stereo not shown) [Cmpd 8]: the inhibition at 100 µM in assay [1] (setting [3]) amounted to 16%.
